Measured values published in PMC8842224 (Journal of Medicinal Chemistry, 2022).
Values after ≈ are worked out from the molar mass of the structure shown. Where two headings read alike, the source gives them in different places. Marks after values point to notes of the source that are not given here.

How the values were obtained:
A3 = settings: printed in Figure 2; cited from earlier work
A2A = settings: cited from earlier work
A1 = settings: cited from earlier work
human A2BAR [1] = molecular target: T1, human A2BAR (Homo sapiens, UniProt P29275); settings: read-out: hA2B Ki; displacement of specific [3H]DPCPX binding, human HEK-293 cells, ± SEM, n = 3
T1 sequence (P29275 1-332): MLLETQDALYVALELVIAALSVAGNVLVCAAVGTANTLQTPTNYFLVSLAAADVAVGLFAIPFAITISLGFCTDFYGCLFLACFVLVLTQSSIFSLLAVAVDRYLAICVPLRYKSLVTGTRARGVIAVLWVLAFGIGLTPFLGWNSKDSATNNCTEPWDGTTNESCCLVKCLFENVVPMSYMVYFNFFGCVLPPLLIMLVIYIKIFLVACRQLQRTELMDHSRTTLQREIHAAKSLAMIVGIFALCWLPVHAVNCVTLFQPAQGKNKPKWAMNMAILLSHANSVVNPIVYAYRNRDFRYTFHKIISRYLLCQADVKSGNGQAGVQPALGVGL

human A2AAR = human A2AAR (Homo sapiens, UniProt P29274)
human A2AAR, sequence (P29274 whole entry): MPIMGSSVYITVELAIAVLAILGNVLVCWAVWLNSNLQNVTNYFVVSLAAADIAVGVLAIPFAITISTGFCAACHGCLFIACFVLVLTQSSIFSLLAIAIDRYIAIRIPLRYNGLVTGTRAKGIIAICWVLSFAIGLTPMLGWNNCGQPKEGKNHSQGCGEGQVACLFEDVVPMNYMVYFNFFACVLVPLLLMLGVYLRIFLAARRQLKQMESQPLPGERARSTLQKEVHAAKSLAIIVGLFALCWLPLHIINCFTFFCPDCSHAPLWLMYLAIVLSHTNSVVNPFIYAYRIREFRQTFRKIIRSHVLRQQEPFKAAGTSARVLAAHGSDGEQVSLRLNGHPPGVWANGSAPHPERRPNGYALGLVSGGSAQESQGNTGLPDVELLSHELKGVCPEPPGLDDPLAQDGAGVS

human A1AR [2] = molecular target: T2, human A1AR (Homo sapiens, UniProt P30542); settings: for Ki: read-out: hA1 Ki, displacement of specific [3H]DPCPX binding, human CHO cells, ± SEM, n = 3; for Exp absolute binding affinity (ΔGbind): experimental, A1AR
T2 sequence (P30542 1-326): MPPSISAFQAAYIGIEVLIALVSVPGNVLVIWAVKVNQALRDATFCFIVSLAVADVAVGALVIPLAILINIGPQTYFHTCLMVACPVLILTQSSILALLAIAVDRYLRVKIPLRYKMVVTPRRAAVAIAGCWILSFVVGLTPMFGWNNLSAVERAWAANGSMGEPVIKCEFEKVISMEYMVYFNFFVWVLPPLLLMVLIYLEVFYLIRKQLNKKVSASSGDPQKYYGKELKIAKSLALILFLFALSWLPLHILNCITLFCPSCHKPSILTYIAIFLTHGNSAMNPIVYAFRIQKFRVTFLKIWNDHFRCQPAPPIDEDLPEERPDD

P-glycoprotein (P-gp) = P-glycoprotein (P-gp) (Homo sapiens, UniProt P08183); settings: MDCK-MDR1 cells, NA = not active
P-glycoprotein (P-gp), sequence (P08183 whole entry): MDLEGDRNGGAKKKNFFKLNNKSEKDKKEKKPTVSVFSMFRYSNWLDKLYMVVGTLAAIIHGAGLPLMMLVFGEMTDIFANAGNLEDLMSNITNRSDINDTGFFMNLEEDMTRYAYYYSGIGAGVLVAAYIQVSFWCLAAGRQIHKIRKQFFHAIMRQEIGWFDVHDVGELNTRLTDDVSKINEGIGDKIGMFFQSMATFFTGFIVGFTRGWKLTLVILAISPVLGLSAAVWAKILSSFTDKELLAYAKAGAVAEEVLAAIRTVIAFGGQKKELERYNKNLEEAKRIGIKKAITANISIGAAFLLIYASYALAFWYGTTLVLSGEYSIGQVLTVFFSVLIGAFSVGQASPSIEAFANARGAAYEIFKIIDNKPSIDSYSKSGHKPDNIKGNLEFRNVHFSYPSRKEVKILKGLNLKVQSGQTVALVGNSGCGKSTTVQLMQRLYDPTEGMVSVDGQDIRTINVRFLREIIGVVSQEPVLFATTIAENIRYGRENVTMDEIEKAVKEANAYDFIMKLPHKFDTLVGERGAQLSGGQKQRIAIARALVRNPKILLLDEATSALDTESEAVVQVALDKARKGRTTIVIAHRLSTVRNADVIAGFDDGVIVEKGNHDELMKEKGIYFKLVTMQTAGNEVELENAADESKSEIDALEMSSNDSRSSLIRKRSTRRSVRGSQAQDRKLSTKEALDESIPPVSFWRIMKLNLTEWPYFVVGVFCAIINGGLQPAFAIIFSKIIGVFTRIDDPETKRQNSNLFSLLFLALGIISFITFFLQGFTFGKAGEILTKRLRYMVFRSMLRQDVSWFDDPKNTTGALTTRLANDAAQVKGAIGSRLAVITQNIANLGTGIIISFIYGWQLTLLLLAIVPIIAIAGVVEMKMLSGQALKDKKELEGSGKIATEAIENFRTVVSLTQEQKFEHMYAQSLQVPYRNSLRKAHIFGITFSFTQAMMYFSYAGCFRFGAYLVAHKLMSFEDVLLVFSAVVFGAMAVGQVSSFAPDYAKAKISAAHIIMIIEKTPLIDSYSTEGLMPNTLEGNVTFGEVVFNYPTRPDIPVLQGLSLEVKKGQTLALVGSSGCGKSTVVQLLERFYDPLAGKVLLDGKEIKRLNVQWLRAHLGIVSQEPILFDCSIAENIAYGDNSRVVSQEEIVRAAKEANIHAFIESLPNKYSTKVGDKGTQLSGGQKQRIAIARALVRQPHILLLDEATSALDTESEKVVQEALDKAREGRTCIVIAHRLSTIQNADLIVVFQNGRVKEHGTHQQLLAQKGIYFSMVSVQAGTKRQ

human A1AR [3] = molecular target: T2, human A1AR; test: biochemical
[4] = Aqueous solubility by nephelometry in PBS; settings: pH 7.4
hA3 = molecular target: T3, hA3 (Homo sapiens, UniProt P0DMS8); test: cAMP functional assay, inhibition of NECA effect; format: cell-based; settings: read-out: hA3 % Inhib. NECA (1 μM)
T3 sequence (P0DMS8 1-318): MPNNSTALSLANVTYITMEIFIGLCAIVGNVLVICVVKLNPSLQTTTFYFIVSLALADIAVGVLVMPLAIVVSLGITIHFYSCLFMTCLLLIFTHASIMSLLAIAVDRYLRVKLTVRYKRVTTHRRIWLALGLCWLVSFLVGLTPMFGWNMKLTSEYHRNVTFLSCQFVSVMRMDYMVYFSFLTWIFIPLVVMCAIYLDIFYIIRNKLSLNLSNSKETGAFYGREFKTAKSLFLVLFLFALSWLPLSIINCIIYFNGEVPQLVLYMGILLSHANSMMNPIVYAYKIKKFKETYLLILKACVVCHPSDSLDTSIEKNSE

in vitro = settings: human, microsomes, pH 7.4
hA2B = molecular target: T4, hA2B (Homo sapiens, UniProt P29275); test: cAMP functional assay, inhibition of NECA effect; format: cell-based; settings: read-out: hA2B % Inhib. NECA (1 μM)
T4 sequence (P29275 1-332): T1 sequence (P29275 1-332)

hA2A = hA2A (Homo sapiens, UniProt P29274); test: cAMP functional assay, inhibition of NECA effect; format: cell-based; settings: read-out: hA2A % Inhib. NECA (1 μM)
hA2A, sequence (P29274 whole entry): as the sequence (P29274 whole entry) above

human A2BAR [5] = molecular target: T1, human A2BAR; test: biochemical; settings: read-out: hA2B percentage displacement of specific binding at 1 μM
[6] = human microsomes
hA1ARs = molecular target: T5, hA1ARs (Homo sapiens, UniProt P30542); settings: NECA 100 nM, forskolin 3 μM
T5 sequence (P30542 1-326): T2 sequence (P30542 1-326)

[7] = read-out: hA2A Ki, displacement of specific [3H]ZM241385 binding, human HeLa cells, ± SEM, n = 3

## Nc1cc(-c2ccc3c(c2)OCO3)nc(-c2ccccc2)n1 [15b]
A3
  A3 (1μM): 15%

## N#Cc1c(NC(=O)C2CCCC2)nc(-c2ccccc2)nc1-c1ccc2c(c1)OCO2 [15c]
A3
  A3 (1μM): 27%
A2A
  A2A (1μM): 14%

## Nc1nc(-c2ccccc2)cc(-c2ccccc2)n1 [17a]
A1
  Ki: 0.0177 µM

## COc1cccc(-c2nc(N)nc(-c3ccccc3)c2C#N)c1 [18g]
Human A2BAR [1]
  Ki: 0.0312 ± 0.0063 µM
Human A2AAR; [7]
  Ki: 0.00691 ± 0.00152 µM
Human A1AR [2]
  Ki: 0.00208 ± 0.00016 µM

## N#Cc1c(-c2ccccc2)nc(N)nc1-c1cccc(O)c1 [18h]
Human A2BAR [1]
  Ki: 0.0501 ± 0.0082 µM
Human A2AAR; [7]
  Ki: 0.0102 ± 0.00352 µM
Human A1AR [2]
  Ki: 0.00149 ± 0.00043 µM

## COc1cc(OC)cc(-c2nc(N)nc(-c3ccccc3)c2C#N)c1 [18t]
Human A2BAR [1]
  Ki: 0.0451 ± 0.0037 µM
Human A2AAR; [7]
  Ki: 0.00173 ± 0.00033 µM
Human A1AR [2]
  Ki: 0.00258 ± 0.00067 µM

## N#Cc1c(-c2ccccc2)nc(N)nc1-c1ccco1 [18x]
Human A2BAR [1]
  Ki: 0.0218 ± 0.0027 µM
Human A2AAR; [7]
  Ki: 0.0101 ± 0.0037 µM
Human A1AR [2]
  Ki: 0.0097 ± 0.0012 µM

## N#Cc1c(-c2ccccc2)nc(N)nc1-c1cccs1 [18y]
Human A2BAR [1]
  Ki: 0.0406 ± 0.0037 µM
Human A2AAR; [7]
  Ki: 0.0249 ± 0.0046 µM
Human A1AR [2]
  Ki: 0.0173 ± 0.0044 µM

## CNc1nc(-c2ccccc2)c(C#N)c(-c2ccc(F)cc2F)n1 [19af]
P-glycoprotein (P-gp)
  Calcein-AM transport inhibition at 100 μM: 44% ^a
Human A1AR [3]
  Ki: < 0.05 µM
Human A1AR [2]
  Exp absolute binding affinity (ΔGbind): -10.42 kcal/mol
  Ki: 0.0226 ± 0.007 µM

## CNc1nc(-c2ccccc2)c(C#N)c(-c2cc(Cl)cc(Cl)c2)n1 [19aj]
Human A1AR [3]
  Ki: < 0.05 µM
Human A1AR [2]
  Exp absolute binding affinity (ΔGbind): -10.32 kcal/mol
  Ki: 0.027 ± 0.0036 µM

## CNc1nc(-c2ccccc2)c(C#N)c(-c2cc(OC)cc(OC)c2)n1 [19am]
Human A2BAR [1]
  Ki: 0.06 ± 0.0051 µM
Human A2AAR; [7]
  Ki: 0.0115 ± 0.0047 µM
Human A1AR [2]; Lig 2 relative to Lig 1 = 19a
  Exp relative binding affinity (ΔΔGbind): 0,11 kcal/mol
Human A1AR [2]; Lig 2 relative to Lig 1 = 19ab
  Exp relative binding affinity (ΔΔGbind): -0.98 kcal/mol
Human A1AR [2]
  Exp absolute binding affinity (ΔGbind): -10.85 kcal/mol
  Ki: 0.011 ± 0.0008 µM

## CNc1nc(-c2ccccc2)c(C#N)c(-c2ccc3c(c2)OCO3)n1 [19ao]
[4]
  solubility at 2 h: 5.4 µM (≈ 1.78 µg/mL)
hA3
  inhibition at 1 µM: 5%
In vitro
  half-life: 15.2 min
hA2B
  inhibition at 1 µM: 1%
P-glycoprotein (P-gp)
  Calcein-AM transport inhibition at 100 μM: 59% ^a
hA2A
  inhibition at 1 µM: 18%

## CCNc1nc(-c2ccccc2)c(C#N)c(-c2ccc3c(c2)OCO3)n1 [19ap]
Human A2BAR [1]
  Ki: 0.217 ± 0.018 µM
Human A2AAR; [7]
  Ki: 0.894 ± 0.042 µM
Human A2AAR; read-out: ki_a2a, supplementary csv, unit inferred
  Ki: 0.895 µM
Human A1AR [2]
  Ki: 0.0067 ± 0.00067 µM

## N#Cc1c(-c2ccccc2)nc(Nc2ccccc2)nc1-c1ccc2c(c1)OCO2 [19aq]
Human A2BAR [1]
  Ki: 0.188 ± 0.023 µM
Human A2AAR; [7]
  Ki: 0.028 ± 0.0096 µM
Human A1AR [2]
  Ki: 0.0114 ± 0.0037 µM

## N#Cc1c(-c2ccccc2)nc(Nc2ccccc2)nc1-c1ccco1 [19au]
Human A2BAR [1]
  Ki: 0.0147 ± 0.0049 µM
Human A2AAR; [7]
  Ki: 0.00215 ± 0.00011 µM
Human A1AR [2]
  Ki: 0.0337 ± 0.0073 µM

## CNc1nc(-c2ccccc2)c(C#N)c(-c2ccsc2)n1 [19az]
Human A1AR [3]
  Ki: < 0.05 µM
Human A1AR [2]
  A1AR selectivity: > 1000 fold
  Exp absolute binding affinity (ΔGbind): -10.05 kcal/mol
  Ki: 0.0428 ± 0.0037 µM
Human A1AR [2]; Lig 2 relative to Lig 1 = 19a
  Exp relative binding affinity (ΔΔGbind): 0.91 kcal/mol
Human A1AR [2]; Lig 2 relative to Lig 1 = 19bb
  Exp relative binding affinity (ΔΔGbind): -0.17 kcal/mol

## CNc1nc(-c2ccccc2)c(C#N)c(-c2cccnc2)n1 [19bd]
Human A1AR [3]
  Ki: < 0.05 µM
Human A1AR [2]
  A1AR selectivity: > 1000 fold
  Exp absolute binding affinity (ΔGbind): -10.52 kcal/mol
  Ki: 0.0193 ± 0.0071 µM
Human A1AR [2]; Lig 2 relative to Lig 1 = 19a
  Exp relative binding affinity (ΔΔGbind): 0.44 kcal/mol
Human A1AR [2]; Lig 2 relative to Lig 1 = 19bb
  Exp relative binding affinity (ΔΔGbind): -0.64 kcal/mol

## CCNc1nc(-c2ccccc2)c(C#N)c(-c2cccnc2)n1 [19be]
Human A2BAR [5]
  inhibition at 1 µM: 1%
Human A2AAR; [7]
  Ki: 0.335 ± 0.018 µM
Human A1AR [2]
  Ki: 0.0118 ± 0.0035 µM

## N#Cc1c(-c2ccccc2)nc(Nc2ccccc2)nc1-c1ccccc1F [19e]
Human A2BAR [1]
  Ki: 0.107 ± 0.01 µM
Human A2AAR; [7]
  Ki: 0.0525 ± 0.0062 µM
Human A1AR [2]
  Ki: 0.00625 ± 0.00102 µM

## CNc1nc(-c2ccccc2)c(C#N)c(-c2cccc(Cl)c2)n1 [19l]
[4]
  solubility at 2 h: 75.4 µM (≈ 24.2 µg/mL)
hA3
  inhibition at 1 µM: 9%
In vitro
  half-life: 6.24 min
hA2B
  inhibition at 1 µM: 11%
hA2A
  inhibition at 1 µM: 16%

## CNc1nc(-c2ccccc2)c(C#N)c(-c2cccc(C#N)c2)n1 [19s]
Human A2BAR [1]
  Ki: 0.0346 ± 0.0057 µM
Human A2AAR; [7]
  Ki: 0.0785 ± 0.0067 µM
Human A1AR [2]; Lig 2 relative to Lig 1 = 19a
  Exp relative binding affinity (ΔΔGbind): -0.66 kcal/mol
Human A1AR [2]
  Exp absolute binding affinity (ΔGbind): -11.62 kcal/mol
  Ki: 0.00299 ± 0.00071 µM

## CCNc1nc(-c2ccccc2)c(C#N)c(-c2cccc(C#N)c2)n1 [19t]
Human A2BAR [1]
  Ki: 0.0142 ± 0.0038 µM
Human A2AAR; [7]
  Ki: 0.155 ± 0.021 µM
Human A1AR [2]
  Ki: 0.00246 ± 0.00018 µM

## CNc1nc(-c2ccccc2)c(C#N)c(-c2ccc(F)cc2)n1 [19v]
[4]
  solubility at 2 h: 18 µM (≈ 5.48 µg/mL)
hA3
  inhibition at 1 µM: 5%
In vitro
  half-life: 18.6 min
hA2A
  inhibition at 1 µM: 25%

## CNc1nc(-c2ccccc2)c(C#N)c(-c2ccc(O)cc2)n1 [19z]
Human A1AR [3]
  Ki: < 0.05 µM
Human A1AR [2]
  A1AR selectivity: > 1000 fold
  Exp absolute binding affinity (ΔGbind): -10.02 kcal/mol
  Ki: 0.0446 ± 0.0032 µM
Human A1AR [2]; Lig 2 relative to Lig 1 = 19a
  Exp relative binding affinity (ΔΔGbind): 0.94 kcal/mol
Human A1AR [2]; Lig 2 relative to Lig 1 = 19ad
  Exp relative binding affinity (ΔΔGbind): 0.28 kcal/mol

## C[C@]12CC[C@H]3[C@@H](CCC4=CC(=O)CC[C@@]43C)[C@@H]1CC[C@@H]2O [Testosterone, reference compound]
In vitro
  half-life: 17.1 min
  microsomal CLint: 27.8 µL/min/mg
[6]
  % Remanent (sampling time 60 min): 8.77%

## CCCn1c(=O)c2[nH]c(-c3ccc(OCC(=O)NCCN)cc3)nc2n(CCC)c1=O [XAC]
hA1ARs
  functional behaviour at hA1ARs (cAMP): reverse the inhibitory effect of NECA on FSK-induced cAMP accumulation
